Assay results as given in patent US11312712B2, “Azabenzimidazoles and their use as AMPA receptor modulators” (Janssen Pharmaceutica NV, priority 2015, dated 2022).
pIC50: −log10 of the molar value.

Biological target: GluA1o-γ8 (GRIA1o-CACNG8 fusion construct) (Homo sapiens (Human), UniProt P42261+Q8WXS5)
Test: Calcium flux assay (FLIPR), inhibition of TARP γ8 dependent AMPA receptor activity
Format: cell-based
Settings: GluA1o-γ8 (GRIA1o-CACNG8 fusion) in HEK293 cells, calcium flux after 15 μM glutamate
Source text: This assay was used to test compounds for their ability to inhibit TARP γ8 dependent AMPA receptor activity. The AMPA receptor is a non-selective cation channel activated by glutamate. Ionotropic glutamate receptors normally desensitize too rapidly to allow detectable calcium influx in a FLIPR assay (Strange et al. (2006). “Functional characterisation of homomeric ionotropic glutamate receptors GluR1-GluR6 in a fluorescence-based high throughput screening assay.” Comb Chem High Throughput Screen 9(2): 147-158). But, this desensitization is incomplete, and a substantial steady-state current remains in the sustained presence of glutamate (Cho et al. (2007). “Two families of TARP isoforms that have distinct effects on the kinetic properties of AMPA receptors and synaptic currents.” Neuron 55(6): 890-904).
An in vitro assay was used to determine the potency of test compounds as inhibitors of the glutamate response of the channel formed by GluA1o-γ8. To ensure a 1:1 stoichiometry of GluA1o and γ8 subunits in the expressed channel, a fusion of the cDNAs for GRIA1o and CACNG8 was used. Following Shi et al (2009) “The stoichiometry of AMPA receptors and TARPs varies by neuronal cell type.” Neuron 62(5): 633-640), the C-terminus of the cDNA for GRIA1o was fused to the N-terminus of the cDNA for γ8. The linker sequence was QQQQQQQQQQEFAT. Channels expressed with this construct appear to have similar properties to channels formed by co-expression of GRIA1o with an excess of CACNG8 (Shi et al. 2009). A clonal cell line in HEK293 cells stably expressing this construct, with a geneticin selection marker, was generated for use in this assay.
Cell expressing the GRIA1o-CACNG8 fusion construct were grown in a monolayer in 96- or 384-well microtiter plates. They were washed with assay buffer (135 mM NaCl, 4 mM KCl, 3 mM CaCl2, 1 mM MgCl2, 5 mM glucose, 10 mM HEPES, pH 7.4, 300 mOs) using a Biotek EL405 plate washer. The cells were then loaded with a calcium-sensitive dye (Calcium-5 or Calcium-6, Molecular Devices) and the test compounds at a range of concentrations. Calcium flux following the addition of 15 μM glutamate was monitored using a Molecular Devices FLIPR Tetra. The fluorescence in each well was normalized to the fluorescence of negative and positive control wells. The negative control wells had no added compounds, and the positive control wells had been incubated with 10 μM CP465022 (a non-subtype-selective AMPA receptor antagonist) (Lazzaro et al. (2002). “Functional characterization of CP-465,022, a selective, noncompetitive AMPA receptor antagonist.” Neuropharmacology 42(2): 143-153). The responses to glutamate as functions of the test compound concentrations were fitted to a four-parameter logistic function. The fitted parameter corresponding to the midpoint was taken to be the potency of inhibition of the compound. The data in Table 4 below illustrates the observed potentcy for the compounds described herein. pIC50 refers to the negative log of the IC50 in molar.

Sequence of GluA1o-γ8 (GRIA1o-CACNG8 fusion construct) (P42261 other isoform, or with tags, fused parts or gaps): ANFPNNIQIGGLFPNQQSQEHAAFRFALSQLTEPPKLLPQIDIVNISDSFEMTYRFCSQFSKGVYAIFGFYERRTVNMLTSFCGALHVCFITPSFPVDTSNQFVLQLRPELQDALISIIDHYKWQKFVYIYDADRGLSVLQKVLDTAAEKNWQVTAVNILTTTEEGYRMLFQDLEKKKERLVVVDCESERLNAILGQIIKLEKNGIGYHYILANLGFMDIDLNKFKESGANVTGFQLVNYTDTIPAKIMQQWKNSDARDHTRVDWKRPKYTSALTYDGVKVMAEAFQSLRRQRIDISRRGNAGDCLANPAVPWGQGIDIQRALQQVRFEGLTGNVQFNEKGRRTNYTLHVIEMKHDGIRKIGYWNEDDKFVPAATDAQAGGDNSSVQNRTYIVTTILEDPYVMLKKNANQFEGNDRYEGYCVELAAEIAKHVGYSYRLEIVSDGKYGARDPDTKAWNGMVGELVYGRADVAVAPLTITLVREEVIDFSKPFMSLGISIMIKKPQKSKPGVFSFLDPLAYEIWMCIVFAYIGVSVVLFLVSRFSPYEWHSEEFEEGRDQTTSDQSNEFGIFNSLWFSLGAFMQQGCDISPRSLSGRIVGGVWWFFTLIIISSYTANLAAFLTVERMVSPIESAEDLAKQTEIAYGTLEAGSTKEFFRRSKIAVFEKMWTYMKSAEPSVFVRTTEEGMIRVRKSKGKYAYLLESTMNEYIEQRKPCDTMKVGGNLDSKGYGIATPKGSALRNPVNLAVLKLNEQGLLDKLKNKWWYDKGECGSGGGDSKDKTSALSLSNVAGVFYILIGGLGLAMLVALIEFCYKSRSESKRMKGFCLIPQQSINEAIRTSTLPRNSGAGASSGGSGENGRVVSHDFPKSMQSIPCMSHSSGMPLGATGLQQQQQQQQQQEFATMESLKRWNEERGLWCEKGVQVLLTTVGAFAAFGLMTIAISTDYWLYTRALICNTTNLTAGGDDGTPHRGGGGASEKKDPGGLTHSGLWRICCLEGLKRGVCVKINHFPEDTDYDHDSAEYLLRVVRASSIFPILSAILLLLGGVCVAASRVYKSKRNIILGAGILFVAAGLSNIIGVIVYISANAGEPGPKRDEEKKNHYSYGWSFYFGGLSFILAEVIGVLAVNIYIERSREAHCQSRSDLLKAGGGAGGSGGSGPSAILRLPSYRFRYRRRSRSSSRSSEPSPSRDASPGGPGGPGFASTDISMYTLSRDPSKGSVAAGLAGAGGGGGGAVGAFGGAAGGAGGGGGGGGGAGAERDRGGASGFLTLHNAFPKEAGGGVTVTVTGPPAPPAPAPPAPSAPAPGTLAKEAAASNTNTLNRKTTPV

SMILES	pIC50
O=C1Cc2cc(-n3c(C4CCOCC4)nc4ccc(C(F)(F)F)nc43)ccc2N1 [Example 50, 5-[2-Tetrahydropyran-4-yl-5-(trifluoromethyl)imidazo[4,5-b]pyridin-3-yl]indolin-2-one]	7.20
O=C1Cc2cc(-n3c(CCC(F)(F)F)nc4ccc(C(F)(F)F)nc43)ccc2N1 [Example 53, 5-[5-(Trifluoromethyl)-2-(3,3,3-trifluoropropyl)imidazo[4,5-b]pyridin-3-yl]indolin-2-one]	7.10
O=C1Cc2cc(-n3c(Cc4cnccn4)nc4ccc(C(F)(F)F)nc43)ccc2N1 [Example 57, 5-[2-(Pyrazin-2-ylmethyl)-5-(trifluoromethyl)imidazo[4,5-b]pyridin-3-yl]indolin-2-one]	4.80
CC(C)(C)c1nc2ccc(C(F)(F)F)nc2n1-c1ccc2[nH]ccc2c1 [Example 59, 2-tert-Butyl-3-(1H-indol-5-yl)-5-(trifluoromethyl)imidazo[4,5-b]pyridine]	6.60
O=c1[nH]c2ccc(-n3c(-c4ccccc4)nc4ccc(N5CCOCC5)nc43)cc2s1 [Example 65, 6-(5-Morpholino-2-phenyl-imidazo[4,5-b]pyridin-3-yl)-3H-1,3-benzothiazol-2-one]	6.50
O=c1[nH]c2ccc(-n3c(-c4ccc(F)cc4)nc4ccc(CO)nc43)cc2s1 [Example 71, 6-(2-(4-Fluorophenyl)-5-(hydroxymethyl)-3H-imidazo[4,5-b]pyridin-3-yl)benzo[d]thiazol-2(3H)-one]	7.40
Cc1cc(O)c2nc(-c3ccc(F)cc3)n(-c3ccc4[nH]c(=O)sc4c3)c2n1 [Example 72, 6-(2-(4-Fluorophenyl)-7-hydroxy-5-methyl-3H-imidazo[4,5-b]pyridin-3-yl)benzo[d]thiazol-2(3H)-one]	7.60
O=C1Cc2cc(-n3c(CCCO)nc4ccc(C(F)(F)F)nc43)ccc2N1 [Example 73, 5-(2-(3-Hydroxypropyl)-5-(trifluoromethyl)-3H-imidazo[4,5-b]pyridin-3-yl)indolin-2-one]	5.90
CCc1nc2ccc(C)nc2n1-c1ccc2c(c1)CC(=O)N2 [Example 75, 5-(2-Ethyl-5-methyl-imidazo[4,5-b]pyridin-3-yl)indolin-2-one]	6.60
CC1(c2nc3ccc(C(F)(F)F)nc3n2-c2ccc3c(c2)CC(=O)N3)COC1 [Example 76, 5-[2-(3-Methyloxetan-3-yl)-5-(trifluoromethyl)imidazo[4,5-b]pyridin-3-yl]indolin-2-one]	6.30
COCCc1nc2ccc(C(F)(F)F)nc2n1-c1ccc2c(c1)CC(=O)N2 [Example 77, 5-[2-(2-Methoxyethyl)-5-(trifluoromethyl)imidazo[4,5-b]pyridin-3-yl]indolin-2-one]	6.60
O=C(c1nc2ccc(C(F)(F)F)nc2n1-c1ccc2[nH]ncc2c1)N1CCC1 [Example 81, Azetidin-1-yl-[3-(1H-indazol-5-yl)-5-(trifluoromethyl)imidazo[4,5-b]pyridin-2-yl]methanone]	6.30
Nc1ccc2nc(-c3ccc(F)cc3)n(-c3ccc4[nH]c(=O)sc4c3)c2n1 [Example 82, 6-[5-Amino-2-(4-fluorophenyl)imidazo[4,5-b]pyridin-3-yl]-3H-1,3-benzothiazol-2-one]	7.20
CCC(CC)c1nc2ccc(C(F)(F)F)nc2n1-c1ccc2c(c1)CC(=O)N2 [Example 83, 5-[2-(1-Ethylpropyl)-5-(trifluoromethyl)imidazo[4,5-b]pyridin-3-yl]indolin-2-one]	7.20
Cc1ccc2nc(C(C)C)n(-c3ccc4c(c3)CC(=O)N4)c2n1 [Example 84, 5-(2-Isopropyl-5-methyl-imidazo[4,5-b]pyridin-3-yl)indolin-2-one]	7.20

Other lines, results leading:

pIC50	SMILES
8.00	CC(C)Cc1nc2ccc(C(F)(F)F)nc2n1-c1ccc2c(c1)CC(=O)N2 [Example 51, 5-[2-Isobutyl-5-(trifluoromethyl)imidazo[4,5-b]pyridin-3-yl]indolin-2-one]
8.20	O=C1Cc2cc(-n3c(CC4CCCC4)nc4ccc(C(F)(F)F)nc43)ccc2N1 [Example 54, 5-[2-(Cyclopentylmethyl)-5-(trifluoromethyl)imidazo[4,5-b]pyridin-3-yl]indolin-2-one]
8.10	O=C1Cc2cc(-n3c(C4CC4)nc4ccc(C(F)(F)F)nc43)ccc2N1 [Example 55, 5-[2-Cyclopropyl-5-(trifluoromethyl)imidazo[4,5-b]pyridin-3-yl]indolin-2-one]
7.90	FC(F)(F)c1ccc2nc(C3CCCC3)n(-c3ccc4[nH]ccc4c3)c2n1 [Example 58, 2-Cyclopentyl-3-(1H-indol-5-yl)-5-(trifluoromethyl)imidazo[4,5-b]pyridine]
8.70	O=C1Cc2cc(-n3c(C4CCCC4)nc4ccc(C(F)(F)F)nc43)ccc2N1 [Example 60, 5-[2-Cyclopentyl-5-(trifluoromethyl)imidazo[4,5-b]pyridin-3-yl]indolin-2-one]
7.90	CC(C)(C)c1nc2ccc(C(F)(F)F)nc2n1-c1ccc2c(c1)CC(=O)N2 [Example 61, 5-[2-tert-Butyl-5-(trifluoromethyl)imidazo[4,5-b]pyridin-3-yl]indolin-2-one]
8.20	Fc1ccc(-c2nc3c(N4CCOCC4)ccnc3n2-c2ccc3[nH]ncc3c2)cc1 [Example 62, 4-[2-(4-Fluorophenyl)-3-(1H-indazol-5-yl)imidazo[4,5-b]pyridin-7-yl]morpholine]
8.50	O=C1Cc2cc(-n3c(-c4ccc(F)cc4)nc4c(N5CCOCC5)ccnc43)ccc2N1 [Example 63, 5-[2-(4-Fluorophenyl)-7-morpholino-imidazo[4,5-b]pyridin-3-yl]indolin-2-one]
8.30	O=c1[nH]c2ccc(-n3c(-c4ccccc4)nc4ccc(N5CCCCC5)nc43)cc2s1 [Example 64, 6-[2-Phenyl-5-(1-piperidyl)imidazo[4,5-b]pyridin-3-yl]-3H-1,3-benzothiazol-2-one]
7.90	CN(C)c1ccc2nc(-c3ccccc3)n(-c3ccc4[nH]c(=O)sc4c3)c2n1 [Example 66, 6-[5-(Dimethylamino)-2-phenyl-imidazo[4,5-b]pyridin-3-yl]-3H-1,3-benzothiazol-2-one]
10.00	O=c1[nH]c2ccc(-n3c(-c4ccccc4)nc4ccc(C(F)F)nc43)cc2s1 [Example 67, 6-(5-(Difluoromethyl)-2-phenyl-3H-imidazo[4,5-b]pyridin-3-yl)benzo[d]thiazol-2(3H)-one]
7.60	O=c1[nH]c2ccc(-n3c(-c4ccc(C(F)F)cc4)nc4cccnc43)cc2s1 [Example 68, 6-[2-[4-(Difluoromethyl)phenyl]imidazo[4,5-b]pyridin-3-yl]-3H-1,3-benzothiazol-2-one]
8.90	O=c1[nH]c2ccc(-n3c(-c4ccccc4)nc4c(C(F)F)ccnc43)cc2s1 [Example 69, 6-[7-(Difluoromethyl)-2-phenyl-imidazo[4,5-b]pyridin-3-yl]-3H-1,3-benzothiazol-2-one]
9.20	CC(C)c1ccnc2c1nc(-c1ccccc1)n2-c1ccc2[nH]c(=O)sc2c1 [Example 70, 6-(7-Isopropyl-2-phenyl-imidazo[4,5-b]pyridin-3-yl)-3H-1,3-benzothiazol-2-one]
7.80	Cc1ccc2nc(C3CCC3)n(-c3ccc4c(c3)CC(=O)N4)c2n1 [Example 74, 5-(2-Cyclobutyl-5-methyl-imidazo[4,5-b]pyridin-3-yl)indolin-2-one]
9.80	c1cc2[nH]ncc2cc1-n1c(C2CCC2)nc2ccc(C3CC3)nc21 [Example 78, 2-Cyclobutyl-5-cyclopropyl-3-(1H-indazol-5-yl)imidazo[4,5-b]pyridine]
8.70	CC(C)c1nc2ccc(C3CC3)nc2n1-c1ccc2[nH]ncc2c1 [Example 79, 5-Cyclopropyl-3-(1H-indazol-5-yl)-2-isopropyl-imidazo[4,5-b]pyridine]
8.70	O=c1[nH]c2ccc(-n3c(C4CCC4)nc4ccc(C(F)(F)F)nc43)cc2o1 [Example 80, 6-[2-Cyclobutyl-5-(trifluoromethyl)imidazo[4,5-b]pyridin-3-yl]-3H-1,3-benzoxazol-2-one]
